Experimental data from ChEMBL document CHEMBL4028808, “Design and synthesis of selective CDK8/19 dual inhibitors: Discovery of 4,5-dihydrothieno[3',4':3,4]benzo[1,2-d]isothiazole derivatives” (Bioorg Med Chem, 2017).
In brackets after ≈: the same amount, converted by molar mass. Activity calls are given as the source filed them. No cut-off for these calls is given here.

Experiments:
[1] = Aqueous solubility of the compound in DMSO at pH 6.8 by HPLC method; format: physicochemical
Ephrin type-A receptor 3 = Ephrin type-A receptor 3 (Homo sapiens, UniProt P29320); assay: Binding affinity to partial length wild-type human EPHA3 (D604 to K889 residues) expressed in bacterial expression system by kinome scan assay
Chain of Ephrin type-A receptor 3 (P29320 whole entry, the tested form may be a part): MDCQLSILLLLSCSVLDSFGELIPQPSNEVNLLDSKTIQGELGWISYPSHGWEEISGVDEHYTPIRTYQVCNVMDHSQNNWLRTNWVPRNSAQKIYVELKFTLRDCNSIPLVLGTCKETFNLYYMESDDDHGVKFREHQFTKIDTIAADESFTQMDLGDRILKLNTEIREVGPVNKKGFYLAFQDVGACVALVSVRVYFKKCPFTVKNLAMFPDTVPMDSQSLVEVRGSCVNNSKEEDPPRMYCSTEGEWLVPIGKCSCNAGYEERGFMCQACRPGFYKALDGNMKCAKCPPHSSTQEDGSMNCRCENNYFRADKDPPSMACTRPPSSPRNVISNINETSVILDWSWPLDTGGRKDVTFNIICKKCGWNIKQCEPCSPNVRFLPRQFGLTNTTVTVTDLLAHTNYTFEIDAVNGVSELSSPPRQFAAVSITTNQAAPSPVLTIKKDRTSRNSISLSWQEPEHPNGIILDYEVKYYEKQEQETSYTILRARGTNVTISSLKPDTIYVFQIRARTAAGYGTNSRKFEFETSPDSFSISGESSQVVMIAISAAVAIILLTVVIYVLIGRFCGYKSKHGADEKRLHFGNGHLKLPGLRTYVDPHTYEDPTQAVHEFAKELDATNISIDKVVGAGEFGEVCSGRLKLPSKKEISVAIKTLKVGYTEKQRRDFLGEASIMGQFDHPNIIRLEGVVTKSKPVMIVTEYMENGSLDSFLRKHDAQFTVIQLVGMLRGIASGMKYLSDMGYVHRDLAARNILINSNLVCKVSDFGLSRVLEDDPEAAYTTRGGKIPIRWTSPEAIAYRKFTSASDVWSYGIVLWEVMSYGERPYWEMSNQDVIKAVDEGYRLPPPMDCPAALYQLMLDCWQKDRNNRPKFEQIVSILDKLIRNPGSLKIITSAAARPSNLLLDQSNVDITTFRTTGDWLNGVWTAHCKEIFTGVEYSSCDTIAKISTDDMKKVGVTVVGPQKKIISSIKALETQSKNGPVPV

[2] = Cmax in ICR mouse plasma at 1 mg/kg, po administered as cassette dose by LC-MS/MS analysis; format: ADME, organism-based; set-up: dose 1 mg/kg, route oral
[3] = Oral bioavailability in ICR mouse plasma at 1 mg/kg administered as cassette dose by LC-MS/MS analysis; format: ADME, organism-based
[4] = target: High affinity nerve growth factor receptor (Homo sapiens) (UniProt P04629); assay: Inhibition of TrkA (unknown origin) at <1 uM
Chain of High affinity nerve growth factor receptor (Homo sapiens) (P04629 33-796 limits assumed): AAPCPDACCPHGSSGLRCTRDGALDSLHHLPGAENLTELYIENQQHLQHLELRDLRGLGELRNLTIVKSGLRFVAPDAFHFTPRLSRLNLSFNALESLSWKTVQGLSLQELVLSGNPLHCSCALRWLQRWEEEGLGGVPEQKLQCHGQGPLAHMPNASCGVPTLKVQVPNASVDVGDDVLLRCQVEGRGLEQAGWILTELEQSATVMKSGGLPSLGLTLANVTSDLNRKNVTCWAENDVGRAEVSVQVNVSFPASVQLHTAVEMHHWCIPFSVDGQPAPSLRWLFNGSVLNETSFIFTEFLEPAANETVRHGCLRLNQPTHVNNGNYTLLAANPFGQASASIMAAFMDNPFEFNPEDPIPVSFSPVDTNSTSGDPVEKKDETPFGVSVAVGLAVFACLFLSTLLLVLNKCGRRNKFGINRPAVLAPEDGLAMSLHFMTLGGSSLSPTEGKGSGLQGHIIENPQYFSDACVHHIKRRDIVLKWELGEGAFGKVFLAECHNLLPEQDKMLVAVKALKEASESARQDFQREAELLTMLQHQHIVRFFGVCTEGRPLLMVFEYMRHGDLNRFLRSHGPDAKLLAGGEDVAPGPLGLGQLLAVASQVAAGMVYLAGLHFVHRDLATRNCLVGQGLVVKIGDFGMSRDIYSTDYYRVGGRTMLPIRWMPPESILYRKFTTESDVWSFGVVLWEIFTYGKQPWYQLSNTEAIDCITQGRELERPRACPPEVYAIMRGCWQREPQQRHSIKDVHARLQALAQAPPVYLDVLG

Calu-1 = assay: Growth inhibition of human Calu1 cells after 196 hrs by CellTiter-Glo luminescence assay; format: functional; settings: Calu-1, 196 h

Q: What does the source list for `COCCNC(=O)c1ccc(Oc2sc(C(N)=O)c3c2-c2sncc2CC3)cn1`?
A: solubility [1]: 47 µg/mL (≈ 109 µM); Kd (Ephrin type-A receptor 3): > 3000 nM; Cmax [2]: 362 ng/mL; bioavailability [3]: 98.5%; inhibition [4]: inactive; GI50 (Calu-1): 0.43 nM
